{
  "source": "paper PMC8555546",
  "about": "“Conductance stability and Na+ interaction with Shab K+ channels under low K+ conditions” (Channels, 2021)",
  "molecular_target": "T1, Shab K+ channel (dShab 11) (Drosophila melanogaster, UniProt P17970)",
  "T1 construct": "Shab cDNA (dShab 11) by recombinant baculovirus in Sf9 insect cells; homotetramer",
  "T1 sequence (P17970 1-1015)": "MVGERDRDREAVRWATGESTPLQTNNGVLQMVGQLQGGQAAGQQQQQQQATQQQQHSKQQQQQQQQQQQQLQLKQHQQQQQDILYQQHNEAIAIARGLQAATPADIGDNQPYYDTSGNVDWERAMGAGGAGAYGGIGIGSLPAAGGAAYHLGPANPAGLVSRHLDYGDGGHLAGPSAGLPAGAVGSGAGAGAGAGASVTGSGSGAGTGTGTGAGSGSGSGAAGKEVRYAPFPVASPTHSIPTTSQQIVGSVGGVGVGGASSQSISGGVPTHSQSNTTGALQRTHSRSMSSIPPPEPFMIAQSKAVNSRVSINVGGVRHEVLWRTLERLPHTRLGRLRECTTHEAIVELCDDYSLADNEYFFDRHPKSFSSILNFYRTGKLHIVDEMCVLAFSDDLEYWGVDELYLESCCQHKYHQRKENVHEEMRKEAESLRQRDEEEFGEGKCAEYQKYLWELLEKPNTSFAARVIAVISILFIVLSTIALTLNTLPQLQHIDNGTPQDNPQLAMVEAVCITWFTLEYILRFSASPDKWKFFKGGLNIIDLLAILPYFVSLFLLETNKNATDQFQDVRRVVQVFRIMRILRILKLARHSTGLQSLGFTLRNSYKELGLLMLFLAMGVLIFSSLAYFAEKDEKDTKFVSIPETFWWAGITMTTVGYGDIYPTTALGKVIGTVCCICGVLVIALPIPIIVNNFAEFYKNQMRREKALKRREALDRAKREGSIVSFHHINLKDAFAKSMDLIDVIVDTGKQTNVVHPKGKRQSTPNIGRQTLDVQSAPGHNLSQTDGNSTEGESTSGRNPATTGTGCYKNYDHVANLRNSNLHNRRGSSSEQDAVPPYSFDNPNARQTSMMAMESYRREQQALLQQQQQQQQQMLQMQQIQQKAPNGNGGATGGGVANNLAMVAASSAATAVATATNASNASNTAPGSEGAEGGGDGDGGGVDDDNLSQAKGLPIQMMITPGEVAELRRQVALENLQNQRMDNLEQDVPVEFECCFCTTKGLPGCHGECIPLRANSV",
  "assay": "whole-cell patch clamp, block of K+ current, Michaelis-Menten fit",
  "assay_type": "cell-based",
  "data": [
    {"smiles": "CC[N+](CC)(CC)CC", "note": "[TEA]", "values": [
      {"measurement": "Kd", "value": 10.8, "unit": "mM"}
    ]}
  ]
}
